The source of these data is patent US8729254B2, “Derivative of glucose and vitamin F, compositions comprising it, uses and preparation process” (L'Oreal, priority 2002, dated 2014).

For data set [1], the target named is T1, purified soybean 15-lipoxygenase L1 (Glycine max, UniProt P08170).
T1 sequence (P08170 1-839): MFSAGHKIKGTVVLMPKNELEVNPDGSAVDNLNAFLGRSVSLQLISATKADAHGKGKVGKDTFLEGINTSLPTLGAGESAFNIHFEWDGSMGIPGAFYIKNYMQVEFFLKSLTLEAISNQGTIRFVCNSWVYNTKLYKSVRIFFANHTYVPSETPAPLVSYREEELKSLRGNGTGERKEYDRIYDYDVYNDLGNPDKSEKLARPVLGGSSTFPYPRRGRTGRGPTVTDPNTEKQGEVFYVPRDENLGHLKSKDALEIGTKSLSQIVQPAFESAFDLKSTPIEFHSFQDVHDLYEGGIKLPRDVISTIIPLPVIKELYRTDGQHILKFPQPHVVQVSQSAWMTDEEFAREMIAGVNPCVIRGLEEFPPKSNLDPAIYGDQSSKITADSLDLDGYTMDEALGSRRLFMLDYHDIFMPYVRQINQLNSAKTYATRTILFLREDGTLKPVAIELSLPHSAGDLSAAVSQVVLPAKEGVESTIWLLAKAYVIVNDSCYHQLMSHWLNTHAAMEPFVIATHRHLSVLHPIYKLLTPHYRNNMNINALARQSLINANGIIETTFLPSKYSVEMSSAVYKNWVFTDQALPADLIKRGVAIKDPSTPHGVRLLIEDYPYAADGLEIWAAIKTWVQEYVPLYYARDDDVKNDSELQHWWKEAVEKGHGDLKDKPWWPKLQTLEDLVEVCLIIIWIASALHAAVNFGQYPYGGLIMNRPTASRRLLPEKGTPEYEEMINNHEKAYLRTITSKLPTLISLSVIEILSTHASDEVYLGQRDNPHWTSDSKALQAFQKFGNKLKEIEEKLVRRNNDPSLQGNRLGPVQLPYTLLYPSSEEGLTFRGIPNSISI
As to the kind of experiment: inhibition of purified soybean 15-lipoxygenase (oxymeter, Vmax of oxygen consumption). In kind it is biochemical. As to conditions: test compound at 1 mM, relative to the control (DMSO), 25° C., pH 7.5, average of 10 tests. As for the experimental part: The effect of the compounds of disclosed herein on the inhibition of purified soybean 15-lipoxygenase was thus tested, given that soybean 15-lipoxygenase is a study model commonly used as a predictive model for human 5-lipoxygenase.
The test performed was as follows:
preparation of a 100 mM, pH 7.5 Tris buffer solution
preparation of a suspension of purified soybean 15-lipoxygenase L1 (0.20 mg/ml) in a pH 7.5100 mM Tris buffer; storage in ice;
calibration of the oxymeter, tank equipped with a magnetic stirring system and thermostatically maintained at 25° C.;
preparation of an aqueous-alcoholic solution (absolute ethanol/water, 5/95, v/v) of potassium arachidonate at a concentration of 7.5 mM;
preparation of a solution of the test compound at a concentration of 30 mM in dimethyl sulphoxide (DMSO);
introduction into the oxymeter tank, with stirring, of 456.6 μl of buffer solution, 16.7 μl of potassium arachidonate solution and 16.7 μl of solution of the test compound or 16.7 μl of DMSO in the case of the “control” measurement.
The recorder was switched on and 10 μl of suspension of 15-lipoxygenase was introduced into the tank.
The maximum rate of consumption of oxygen (Vmax) was recorded.
The various Vmax values were compared with that of the control and the results were expressed as a % thereof. The test was repeated 10 times and an average of these 10 tests were determined.

For data set [2] the following is noted: 0.1% by weight in ethanol/isopropanol/water (64/16/20 by volume), 45° C., 2 months; hydrolysed glucopyranose linoleate by HPLC.
Protocol: The stability of the compounds disclosed herein were assessed (measured by the hydrolysis of the esters).
Solutions comprising 0.1% by weight of the compounds in an ethanol/isopropanol/water mixture (64/16/20 by volume) were prepared. These solutions were left in a chamber thermostatically maintained at 45° C. for 2 months.

Regarding `CCCCCC=CCC=CCCCCCCCC(=O)OC[C@H]1OC(O)[C@H](O)[C@@H](O)[C@@H]1O` (stereo partly drawn) [Compound A, 6-O-octadeca-9,12-dienoyl-D-glucopyranose], in data set [1], testing at 1000 µM gave an inhibition of 71%. Further, the “% of hydrolysis” value in data set [2] is 7%. Consider `CCCCCCCCC=CCCCCCCCC(=O)OC[C@H]1OC(O)[C@H](O)[C@@H](O)[C@@H]1O` (stereo partly drawn) [Compound B, 6-O-octadeca-9-enoyl-D-glucopyranose], for which, in data set [1], testing at 1000 µM gave an inhibition of 30%. Still for that read-out and setting: the result for `CCCCCCCCCCCCCCCCCC(=O)OC[C@H]1OC(O)[C@H](O)[C@@H](O)[C@@H]1O` (stereo partly drawn) [Compound C, 6-O-octadecanoyl-D-glucopyranose] reads 49%; that for `CCCCCCCCCCCCCCCC(=O)OC[C@H]1OC(O)[C@H](O)[C@@H](O)[C@@H]1O` (stereo partly drawn) [Compound D, 6-O-hexadecanoyl-D-glucopyranose], 15%. On to `CCCCCC=CCC=CCCCCCCCC(=O)O[C@H]1[C@H](O)[C@@H](CO)OC(O)[C@@H]1O` (stereo partly drawn) [Compound E, 3-O-octadeca-9,12-dienoyl-D-glucopyranose], for which, in data set [1], the inhibition (usually the change of the read-out against control, counted positive when it falls) at 1000 µM was 80%. For the same molecule, the “% of hydrolysis” value in data set [2] was determined as 30%.
